Reference: PubChem BioAssay (NCI)
“And” between values parts separate entries of the source, which are not always exact repeats. Equal values may be shown once.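 Protocol summary: plate cells (96-well), add compound at 5 concentrations, incubate 48 h, interpolate endpoints linearly. GI50 marks 50% less growth. TGI denotes the concentration required for complete inhibition of growth.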

Key:
Test in all cases: NCI tumour cell line growth inhibition, 48 h
[1] = system: MOLT-4 leukemia
[2] = system: SW-620 colon
[3] = system: UACC-257 melanoma
[4] = system: EKVX NSCLC
[5] = system: XF 498 CNS
[6] = system: SN12C renal
[7] = system: HOP-18 NSCLC
[8] = system: M19-MEL melanoma
[9] = system: HOP-62 NSCLC
[10] = system: DLD-1 colon
[11] = system: SK-MEL-2 melanoma
[12] = system: OVCAR-3 ovarian
[13] = system: 786-0 renal
[14] = system: PC-3 prostate
[15] = system: HCC-2998 colon
[16] = system: CAKI-1 renal
[17] = system: NCI/ADR-RES ovarian
[18] = system: M14 melanoma
[19] = system: A498 renal
[20] = system: RPMI-8226 leukemia
[21] = system: HL-60(TB) leukemia
[22] = system: A549 NSCLC
[23] = system: NCI-H522 lung
[24] = system: OVCAR-8 ovarian
[25] = system: IGROV1 ovarian
[26] = system: CCRF-CEM leukemia
[27] = system: HT29 colon
[28] = system: HCT-116 colon
[29] = system: KM20L2 colon
[30] = system: MDA-N
[31] = system: SK-MEL-28 melanoma
[32] = system: MCF7 breast
[33] = system: P388/ADR leukemia
[34] = system: SK-OV-3 ovarian
[35] = system: SN12K1 renal
[36] = system: U251 CNS
[37] = system: HOP-92 NSCLC
[38] = system: HCT-15 colon
[39] = system: OVCAR-5 ovarian
[40] = system: MALME-3M melanoma
[41] = system: DMS 114 small cell lung
[42] = system: SK-MEL-5 melanoma
[43] = system: COLO 205 colon
[44] = system: RXF 393 renal
[45] = system: SNB-75 CNS
[46] = system: K-562 leukemia
[47] = system: BT-549 breast
[48] = system: DMS 273 small cell lung
[49] = system: SF-295 CNS
[50] = system: P388 leukemia
[51] = system: T-47D breast
[52] = system: UACC-62 melanoma
[53] = system: NCI-H226 lung
[54] = system: SF-268 CNS

C1CN1c1nc(N2CC2)nc(N2CC2)n1
TGI [1]: 15.3 µM | GI50 [2]: 7.84 µM | TGI [2]: 56.3 µM and > 54.9 µM | GI50 [3]: 13.3 µM | TGI [3]: 31.9 µM and 23 µM | GI50 [4]: 22.2 µM | TGI [4]: 55.5 µM and 47.4 µM | TGI [5]: 17.2 µM | GI50 [6]: 4.32 µM | TGI [6]: 45.3 µM and 41.2 µM | TGI [7]: 68.9 µM | TGI [8]: 33 µM | GI50 [9]: 5.92 µM | TGI [9]: 15.7 µM and 30.1 µM | TGI [10]: 78.8 µM | GI50 [11]: 19.8 µM | TGI [11]: 36.4 µM and 31.3 µM | TGI [12]: 41.7 µM and 25.8 µM | GI50 [13]: 1830 nM | TGI [13]: 17 µM and 16 µM | GI50 [14]: 20.2 µM | TGI [14]: 69.3 µM and > 71.2 µM | GI50 [15]: 10.4 µM | TGI [15]: 23.8 µM and 18.3 µM | GI50 [16]: 1870 nM | TGI [16]: 24.8 µM and 27.5 µM | GI50 [17]: 3.48 µM | TGI [17]: 38.6 µM and 12.8 µM | GI50 [18]: 3.86 µM | TGI [18]: 23.9 µM and 34.9 µM | TGI [19]: 25.2 µM | GI50 [20]: 15.9 µM | TGI [20]: 72.6 µM and 29.7 µM | GI50 [21]: 195 nM | TGI [21]: 24.5 µM and > 100 µM | GI50 [22]: 4.99 µM | TGI [22]: 31 µM and 28.3 µM | TGI [23]: 21 µM and 12.2 µM | GI50 [24]: 5.11 µM | TGI [24]: 38.8 µM and 16.2 µM | GI50 [25]: 11.1 µM | TGI [25]: 33.4 µM and 21.8 µM | GI50 [26]: 195 nM | TGI [27]: 64.8 µM and 35.4 µM | TGI [28]: 33.4 µM and 15.6 µM | TGI [29]: 47.7 µM | GI50 [30]: 15 µM | TGI [30]: 42 µM and 33.3 µM | TGI [31]: 40 µM | GI50 [32]: 1.39 µM | TGI [32]: 27.1 µM and 28.9 µM | TGI [33]: 16.7 µM | GI50 [34]: 13.9 µM | TGI [34]: 41.1 µM and 36.6 µM | TGI [35]: 26 µM | GI50 [36]: 6.6 µM | TGI [36]: 27.5 µM and > 50.1 µM | GI50 [37]: 8.04 µM | TGI [37]: 35.9 µM and 17.7 µM | GI50 [38]: 10.1 µM | TGI [38]: 50.2 µM and 24.6 µM | GI50 [39]: 13.7 µM | TGI [39]: 42 µM and 31.4 µM | GI50 [40]: 13.6 µM | TGI [40]: 28.2 µM and 22.5 µM | TGI [41]: 23.2 µM | GI50 [42]: 6.93 µM | TGI [42]: 19.6 µM and 14 µM | TGI [43]: 32 µM and 41 µM | GI50 [44]: 3.32 µM | TGI [44]: 21.6 µM and 13.5 µM | GI50 [45]: 8.99 µM | TGI [45]: 25.7 µM and 31.5 µM | TGI [46]: 77.9 µM | GI50 [47]: 8.42 µM | TGI [47]: 45.1 µM and 19.1 µM | TGI [48]: 20.5 µM | GI50 [49]: 1310 nM | TGI [49]: 19.7 µM and 24.9 µM | TGI [50]: 17.3 µM | GI50 [51]: 8.23 µM and 1.24 µM | TGI [51]: 76.6 µM and 19.6 µM | GI50 [52]: 3.75 µM | TGI [52]: 14.8 µM and 17 µM | GI50 [53]: 10.8 µM | TGI [53]: 27.3 µM and 25.7 µM | GI50 [54]: 1.45 µM | TGI [54]: 37.5 µM and 14.8 µM

C[C@@]1(CO)[C@H](O)CC[C@@]2(C)[C@H]1CC[C@H]1C[C@@H]3C[C@@]12CC[C@@]3(O)COC(=O)CN
GI50 [1]: 2550 nM | TGI [1]: 53.7 µM and 162 µM | TGI [2]: 59.4 µM and > 500 µM and 220 µM | GI50 [3]: 133 µM and 99.4 µM | TGI [3]: > 72.2 µM and > 500 µM and 239 µM | GI50 [4]: 96.8 µM and 79.3 µM | TGI [4]: 64.5 µM and > 500 µM and 171 µM | GI50 [5]: > 70.5 µM and 54.2 µM and 16.8 µM | TGI [5]: 347 µM and 176 µM | TGI [6]: 65.7 µM and > 500 µM and 183 µM | GI50 [7]: > 500 µM and 87.4 µM | TGI [7]: > 500 µM | TGI [8]: > 500 µM and 161 µM | GI50 [9]: 4.69 µM and 23.3 µM | TGI [9]: > 78.7 µM and > 500 µM and 147 µM | GI50 [10]: > 500 µM and 104 µM | TGI [10]: > 500 µM | GI50 [11]: > 500 µM | TGI [11]: > 89.6 µM and > 500 µM and 177 µM | GI50 [12]: > 500 µM and 105 µM | TGI [12]: > 500 µM and 230 µM | GI50 [13]: 1120 nM | TGI [13]: 60.8 µM and 108 µM | GI50 [14]: 3.29 µM | TGI [14]: 150 µM | GI50 [15]: > 500 µM and 72.6 µM | GI50 [16]: 2360 nM | TGI [16]: 78.7 µM | TGI [17]: 79.9 µM and > 500 µM and 163 µM | GI50 [18]: 3.99 µM | TGI [18]: > 79.1 µM and 112 µM | GI50 [19]: 7.15 µM and 50.9 µM and 8.34 µM | GI50 [20]: 16.1 µM and 3.35 µM | TGI [20]: 78.2 µM and > 500 µM and 126 µM | GI50 [21]: 2110 nM and 380 nM | GI50 [22]: 1.81 µM and 15.7 µM and 3.1 µM | TGI [22]: 76.1 µM and > 500 µM and 182 µM | GI50 [23]: 14.6 µM and 106 µM and 33.1 µM | TGI [23]: > 82.2 µM and > 500 µM and 172 µM | GI50 [24]: 2.29 µM and 12.6 µM and 4.01 µM | TGI [25]: > 500 µM and 181 µM | GI50 [26]: 6560 nM and 777 nM | GI50 [27]: 13.2 µM | TGI [27]: 50.9 µM and 183 µM | GI50 [28]: 2.03 µM and 19.5 µM and 4.63 µM | TGI [28]: 65.7 µM and > 500 µM and 155 µM | GI50 [29]: 61.2 µM and 28.7 µM and 129 µM | TGI [29]: > 500 µM | TGI [30]: > 86.9 µM and 180 µM | GI50 [31]: 83.9 µM and 150 µM | TGI [31]: > 500 µM and 252 µM | GI50 [32]: 3.17 µM and 21.2 µM and 3.87 µM | TGI [33]: 126 µM | TGI [34]: 99.8 µM and > 500 µM and 186 µM | GI50 [35]: 7.45 µM and 1.49 µM | TGI [35]: > 500 µM | GI50 [36]: 4.35 µM and 7.51 µM | TGI [36]: 66 µM and 50 µM and 178 µM | GI50 [37]: 325 µM | TGI [37]: 83.4 µM and > 500 µM and 137 µM | TGI [38]: > 500 µM and 231 µM | GI50 [39]: 31.2 µM and 137 µM and 33.9 µM | TGI [39]: > 93.2 µM and > 500 µM and 188 µM | TGI [40]: > 500 µM and 189 µM | TGI [41]: > 500 µM and 170 µM | GI50 [42]: 41.9 µM and 6.06 µM | TGI [42]: > 500 µM and 95.7 µM | GI50 [43]: 82.4 µM | TGI [43]: 39.7 µM and 193 µM | TGI [44]: 53.6 µM and > 500 µM and 163 µM | TGI [45]: 58.3 µM and > 500 µM and 258 µM | GI50 [46]: 12.9 µM | TGI [46]: 68.4 µM and > 5 µM and 231 µM | GI50 [47]: 62.7 µM | TGI [47]: > 241 µM | GI50 [48]: 250 nM | TGI [48]: 144 µM | GI50 [49]: 770 nM (2×) and 3.44 µM | TGI [49]: 24.4 µM and 142 µM | TGI [50]: 209 µM | GI50 [51]: 41.9 µM | TGI [51]: > 79.1 µM and 190 µM | TGI [52]: > 500 µM and 131 µM | TGI [53]: > 500 µM and 238 µM | GI50 [54]: 65.6 µM | TGI [54]: > 500 µM and 242 µM
